Assay results as given in patent US20140024638A1, “TREATMENT OF COGNITIVE DYSFUNCTION IN SCHIZOPHRENIA” (TARGACEPT, INC., priority 2011, published 2014).

Experiments:
Assay type in all cases: in vivo, human
[1] = system: patients with schizophrenia; test: Scale for Assessment of Negative Symptoms (SANS), Phase 2 trial; details: for SANS TOTAL SCORE: Adjusted Mean / SANS TOTAL SCORE: Mean Difference ± SE between TC-5619 and Placebo (Placebo-TC5619): All Patients; for SANS: Mean (SE): tobacco users; for SANS: Mean (SEM): total population
Protocol: (§1) The double blind, placebo controlled Phase 2 trial was conducted at 7 sites in the United States and 12 sites in India. […] Of the randomized patients, approximately 69% were male and approximately 46% were users of tobacco products. […] The primary efficacy outcome measure was GMLT, and the trial included a number of other scales as secondary efficacy outcome measures.

[2] = system: patients with schizophrenia; test: Clinical Global Impression - Severity (CGI-S), Phase 2 trial; details: for CGI-SEVERITY: Adjusted Mean / CGI-SEVERITY: Mean Difference ± SE between TC-5619 and Placebo (Placebo-TC5619): All Patients; for CGI-S: Mean (SE): tobacco users; for CGI-S: Mean (SEM): total population
Protocol: as §1

[3] = system: patients with schizophrenia; test: CogState Social-Emotional Cognition task, Phase 2 trial; details: for CogState Social-Emotional Cognition: Mean (SE): tobacco users meeting data integrity criteria; for CogState Social-Emotional Cognition: Mean (SEM): total population, subjects meeting data integrity criteria
Protocol: as §1

O=C(N[C@@H]1C2CCN(CC2)[C@H]1Cc1cccnc1)c1cc2ccccc2o1 (single isomer, unassigned) [TC-5619]
SANS TOTAL SCORE: Adjusted Mean ([1]; Week 1, 1 mg daily, SE 0.93, placebo −0.92): −1.20 | SANS TOTAL SCORE: Mean Difference ± SE between TC-5619 and Placebo (Placebo-TC5619) ([1]; Week 1, 1 mg daily, one-sided 90% CI (−0.77, ∞), one-sided P 0.3647): 0.28 ± 0.82 | SANS TOTAL SCORE: Adjusted Mean ([1]; Week 4, 1 mg daily, SE 1.11, placebo −2.74): −3.52 | SANS TOTAL SCORE: Mean Difference ± SE between TC-5619 and Placebo (Placebo-TC5619) ([1]; Week 4, 1 mg daily, one-sided 90% CI (−0.74, ∞), one-sided P 0.2547): 0.78 ± 1.18 | SANS TOTAL SCORE: Adjusted Mean ([1]; Week 8, 5 mg daily, SE 1.25, placebo −5.55): −7.25 | SANS TOTAL SCORE: Mean Difference ± SE between TC-5619 and Placebo (Placebo-TC5619) ([1]; Week 8, 5 mg daily, one-sided 90% CI (−0.14, ∞), one-sided P 0.1184): 1.71 ± 1.44 | SANS TOTAL SCORE: Adjusted Mean ([1]; Week 12, 25 mg daily, SE 1.40, placebo −6.23): −9.93 | SANS TOTAL SCORE: Mean Difference ± SE between TC-5619 and Placebo (Placebo-TC5619) ([1]; Week 12, 25 mg daily, one-sided 90% CI (1.53, ∞), one-sided P 0.0147): 3.70 ± 1.68 | SANS, result in words ([1]; secondary outcome measure, investigator assessment of negative symptoms): encouraging efficacy signals | SANS: Mean (SE) ([1]; Week 4, 1 mg daily, 1-tailed p = 0.098): 2.74 (2.10); p = 0.098 | SANS: Mean (SE) ([1]; Week 8, 5 mg daily, 1-tailed p = 0.054): 4.00 (2.45); p = 0.054 | SANS: Mean (SE) ([1]; Week 12, 25 mg daily, 1-tailed p = 0.033): 4.86 (2.58); p = 0.033 | SANS: Mean (SEM) ([1]; Week 4, 1 mg daily, 1-tailed p = 0.255): 0.78 (1.18); p = 0.255 | SANS: Mean (SEM) ([1]; Week 8, 5 mg daily, 1-tailed p = 0.118): 1.71 (1.44); p = 0.118 | SANS: Mean (SEM) ([1]; Week 12, 25 mg daily, 1-tailed p = 0.015): 3.70 (1.68); p = 0.015 | CGI-SEVERITY: Adjusted Mean ([2]; Week 1, 1 mg daily, SE 0.03, placebo −0.05): −0.03 | CGI-SEVERITY: Mean Difference ± SE between TC-5619 and Placebo (Placebo-TC5619) ([2]; Week 1, 1 mg daily, one-sided 90% CI (−0.07, ∞), one-sided P 0.7588): −0.02 ± 0.03 | CGI-SEVERITY: Adjusted Mean ([2]; Week 4, 1 mg daily, SE 0.05, placebo −0.09): −0.06 | CGI-SEVERITY: Mean Difference ± SE between TC-5619 and Placebo (Placebo-TC5619) ([2]; Week 4, 1 mg daily, one-sided 90% CI (−0.10, ∞), one-sided P 0.6737): −0.02 ± 0.06 | CGI-SEVERITY: Adjusted Mean ([2]; Week 8, 5 mg daily, SE 0.05, placebo −0.24): −0.23 | CGI-SEVERITY: Mean Difference ± SE between TC-5619 and Placebo (Placebo-TC5619) ([2]; Week 8, 5 mg daily, one-sided 90% CI (−0.09, ∞), one-sided P 0.5440): −0.01 ± 0.06 | CGI-SEVERITY: Adjusted Mean ([2]; Week 12, 25 mg daily, SE 0.07, placebo −0.29): −0.31 | CGI-SEVERITY: Mean Difference ± SE between TC-5619 and Placebo (Placebo-TC5619) ([2]; Week 12, 25 mg daily, one-sided 90% CI (−0.11, ∞), one-sided P 0.4495): 0.01 ± 0.09 | Clinical Global Impression - Severity, result in words ([2]; secondary outcome measure): did not demonstrate a drug effect | CGI-S: Mean (SE) ([2]; Week 4, 1 mg daily, 1-tailed p = 0.434): 0.02 (0.09); p = 0.434 | CGI-S: Mean (SE) ([2]; Week 8, 5 mg daily, 1-tailed p = 0.224): 0.08 (0.10); p = 0.224 | CGI-S: Mean (SE) ([2]; Week 12, 25 mg daily, 1-tailed p = 0.308): 0.07 (0.14); p = 0.308 | CGI-S: Mean (SEM) ([2]; Week 4, 1 mg daily, 1-tailed p = 0.674): −0.02 (0.06); p = 0.674 | CGI-S: Mean (SEM) ([2]; Week 8, 5 mg daily, 1-tailed p = 0.544): −0.01 (0.06); p = 0.544 | CGI-S: Mean (SEM) ([2]; Week 12, 25 mg daily, 1-tailed p = 0.450): 0.01 (0.09); p = 0.450 | CogState Social-Emotional Cognition: Mean (SE) ([3]; Week 4, 1 mg daily, 1-tailed p = 0.632): −0.010 (0.028); p = 0.632 | CogState Social-Emotional Cognition: Mean (SE) ([3]; Week 8, 5 mg daily, 1-tailed p = 0.625): −0.009 (0.029); p = 0.625 | CogState Social-Emotional Cognition: Mean (SE) ([3]; Week 12, 25 mg daily, 1-tailed p = 0.752): −0.019 (0.027); p = 0.752 | CogState Social-Emotional Cognition: Mean (SEM) ([3]; Week 4, 1 mg daily, 1-tailed p = 0.259): 0.013 (0.020); p = 0.259 | CogState Social-Emotional Cognition: Mean (SEM) ([3]; Week 8, 5 mg daily, 1-tailed p = 0.217): 0.015 (0.020); p = 0.217 | CogState Social-Emotional Cognition: Mean (SEM) ([3]; Week 12, 25 mg daily, 1-tailed p = 0.546): −0.002 (0.020); p = 0.546
